{"source": "ChEMBL document CHEMBL1151167", "about": "“New marine sesquiterpenoids and diterpenoids from the Okinawan soft coral Clavularia koellikeri” (2004)", "assay_type_in_all_cases": "functional", "key": {"MKN-74": {"test_system": "MKN-74", "assay": "Cytotoxicity against human MKN74 cells after 48 hrs by SRB assay", "conditions": "MKN-74, 48 h"}, "SF-539": {"test_system": "SF-539", "assay": "Cytotoxicity against human SF539 cells after 48 hrs by SRB assay", "conditions": "SF-539, 48 h"}, "NCI-H522": {"test_system": "NCI-H522", "assay": "Cytotoxicity against human NCI-H522 cells after 48 hrs by SRB assay", "conditions": "NCI-H522, 48 h"}, "SNB-75": {"test_system": "SNB-75", "assay": "Cytotoxicity against human SNB75 cells after 48 hrs by SRB assay", "conditions": "SNB-75, 48 h"}, "LOX IMVI": {"test_system": "LOX IMVI", "assay": "Cytotoxicity against human LOXIMVI cells after 48 hrs by SRB assay"}}, "data": [{"smiles": "C/C1=C\\CC2=CC[C@@H](C(C)C)[C@]2(C)C[C@@H](O)/C(C)=C/CC1", "values": [{"measurement": "GI50", "setting": "MKN-74", "result": 5.2, "unit": "µg/mL"}, {"measurement": "GI50", "setting": "SF-539", "result": 4.9, "unit": "µg/mL"}, {"measurement": "GI50", "setting": "NCI-H522", "result": 5.2, "unit": "µg/mL"}, {"measurement": "GI50", "setting": "SNB-75", "result": 4.9, "unit": "µg/mL"}, {"measurement": "GI50", "setting": "LOX IMVI", "result": 4.9, "unit": "µg/mL"}]}]}
